From patent publication US4639433A, “Glycopeptide derivatives” (Eli Lilly and Company, priority 1985, dated 1987)
Values after ≈ are worked out from the molar mass of the structure shown.

Experiments:
[1] = test system: Staphylococcus epidermidis 222; settings: agar dilution
[2] = test system: Klebsiella pneumoniae X26; settings: agar dilution
[3] = test system: Streptococcus sp. group D 2041; settings: agar dilution
[4] = test system: Haemophilus influenzae 76; settings: agar dilution
[5] = test system: Streptococcus pyogenes C203; settings: agar dilution
[6] = test system: Escherichia coli EC14; settings: agar dilution
[7] = test system: Escherichia coli N10; settings: agar dilution
[8] = test system: Staphylococcus aureus S13E; settings: agar dilution
[9] = test system: Klebsiella pneumoniae KAE; settings: agar dilution
[10] = test system: Staphylococcus aureus NRRL B313; settings: agar dilution
[11] = test system: Streptococcus pneumoniae Park 1; settings: agar dilution
[12] = test system: Streptococcus faecium ATCC 9790; settings: agar dilution
[13] = test system: Escherichia coli TEM; settings: agar dilution
[14] = test system: Staphylococcus epidermidis EPI1; settings: agar dilution
[15] = test system: Staphylococcus aureus V41; settings: agar dilution
[16] = test system: Haemophilus influenzae C.L.; settings: agar dilution
[17] = test system: Staphylococcus aureus X400; settings: agar dilution
[18] = test system: Streptococcus pyogenes; experiment: Experimental bacterial infection in mice, ED50; assay type: in vivo; settings: two doses, administered subcutaneously
[19] = test system: Klebsiella pneumoniae X68; settings: agar dilution
[20] = test system: Staphylococcus aureus; experiment: Experimental bacterial infection in mice, ED50; assay type: in vivo; settings: two doses, administered subcutaneously
[21] = test system: Streptococcus pneumoniae; experiment: Experimental bacterial infection in mice, ED50; assay type: in vivo; settings: two doses, administered subcutaneously

SMILES	MIC [1]	MIC [2]	MIC [3]	MIC [4]	MIC [5]	MIC [6]	MIC [7]	MIC [8]	MIC [9]	MIC [10]	MIC [11]	MIC [12]	MIC [13]	MIC [14]	MIC [15]	MIC [16]	MIC [17]	ED50 [18]	MIC [19]	ED50 [20]	other results
CCCC(=O)NC1(C)CC(OC2C(Oc3c4cc5cc3Oc3ccc(cc3Cl)C(O)C3NC(=O)C(NC(=O)C5NC(=O)C(CC(N)=O)NC(=O)C(NC(=O)C(CC(C)C)NC)C(O)c5ccc(c(Cl)c5)O4)c4ccc(O)c(c4)-c4c(O)cc(O)cc4C(C(=O)O)NC3=O)OC(CO)C(O)C2O)OC(C)C1O (stereo not drawn) [Compound 1, N^van --(1-oxo-n-butyl)vancomycin]	4 µg/mL (≈ 2.63 µM)	-- (not active at 128 mcg/ml)	8 µg/mL (≈ 5.27 µM)	-- (not active at 128 mcg/ml)	1 µg/mL (≈ 0.658 µM)	-- (not active at 128 mcg/ml)	-- (not active at 128 mcg/ml)	2 µg/mL (≈ 1.32 µM)	-- (not active at 128 mcg/ml)	2 µg/mL (≈ 1.32 µM)	1 µg/mL (≈ 0.658 µM)	2 µg/mL (≈ 1.32 µM)	-- (not active at 128 mcg/ml)	8 µg/mL (≈ 5.27 µM)	2 µg/mL (≈ 1.32 µM)	-- (not active at 128 mcg/ml)	2 µg/mL (≈ 1.32 µM)	5.5 mg/kg/2	-- (not active at 128 mcg/ml)	6.3 mg/kg/2	ED50 [21]: 3.6 mg/kg/2
CCCCCC(=O)NC1(C)CC(OC2C(Oc3c4cc5cc3Oc3ccc(cc3Cl)C(O)C3NC(=O)C(NC(=O)C5NC(=O)C(CC(N)=O)NC(=O)C(NC(=O)C(CC(C)C)NC)C(O)c5ccc(c(Cl)c5)O4)c4ccc(O)c(c4)-c4c(O)cc(O)cc4C(C(=O)O)NC3=O)OC(CO)C(O)C2O)OC(C)C1O (stereo not drawn) [Compound 2, N^van --(1-oxo-n-hexyl)vancomycin]	8 µg/mL (≈ 5.17 µM)	-- (not active at 128 mcg/ml)	16 µg/mL (≈ 10.3 µM)	128 µg/mL (≈ 82.7 µM)	2 µg/mL (≈ 1.29 µM)	-- (not active at 128 mcg/ml)	-- (not active at 128 mcg/ml)	4 µg/mL (≈ 2.58 µM)	-- (not active at 128 mcg/ml)	2 µg/mL (≈ 1.29 µM)	2 µg/mL (≈ 1.29 µM)	4 µg/mL (≈ 2.58 µM)	-- (not active at 128 mcg/ml)	16 µg/mL (≈ 10.3 µM)	4 µg/mL (≈ 2.58 µM)	-- (not active at 128 mcg/ml)	4 µg/mL (≈ 2.58 µM)	12.9 mg/kg/2	-- (not active at 128 mcg/ml)	11.2 mg/kg/2	ED50 [21]: 3.5 mg/kg/2
CNC(CC(C)C)C(=O)NC1C(=O)NC(CC(N)=O)C(=O)NC2C(=O)NC3C(=O)NC(C(=O)NC(C(=O)O)c4cc(O)cc(O)c4-c4cc3ccc4O)C(O)c3ccc(c(Cl)c3)Oc3cc2cc(c3OC2OC(CO)C(O)C(O)C2OC2CC(C)(NC(=O)C(N)C(C)C)C(O)C(C)O2)Oc2ccc(cc2Cl)C1O (stereo not drawn) [Compound 33, N^van --(2-amino-1-oxo-isopentyl)vancomycin]	32 µg/mL (≈ 20.7 µM)	-- (not active at 128 mcg/ml)	32 µg/mL (≈ 20.7 µM)	-- (not active at 128 mcg/ml)	8 µg/mL (≈ 5.17 µM)	-- (not active at 128 mcg/ml)	-- (not active at 128 mcg/ml)	8 µg/mL (≈ 5.17 µM)	-- (not active at 128 mcg/ml)	8 µg/mL (≈ 5.17 µM)	8 µg/mL (≈ 5.17 µM)	8 µg/mL (≈ 5.17 µM)	-- (not active at 128 mcg/ml)	32 µg/mL (≈ 20.7 µM)	8 µg/mL (≈ 5.17 µM)	-- (not active at 128 mcg/ml)	32 µg/mL (≈ 20.7 µM)		-- (not active at 128 mcg/ml)		
CNC(CC(C)C)C(=O)NC1C(=O)NC(CC(N)=O)C(=O)NC2C(=O)NC3C(=O)NC(C(=O)NC(C(=O)O)c4cc(O)cc(O)c4-c4cc3ccc4O)C(O)c3ccc(c(Cl)c3)Oc3cc2cc(c3OC2OC(CO)C(O)C(O)C2OC2CC(C)(NC(=O)CC(C)C)C(O)C(C)O2)Oc2ccc(cc2Cl)C1O (stereo not drawn) [Compound 34, N^van --(1-oxo-isopentyl)vancomycin]	4 µg/mL (≈ 2.61 µM)	-- (not active at 128 mcg/ml)	8 µg/mL (≈ 5.22 µM)	-- (not active at 128 mcg/ml)	1 µg/mL (≈ 0.652 µM)	-- (not active at 128 mcg/ml)	-- (not active at 128 mcg/ml)	2 µg/mL (≈ 1.3 µM)	-- (not active at 128 mcg/ml)	2 µg/mL (≈ 1.3 µM)	1 µg/mL (≈ 0.652 µM)	2 µg/mL (≈ 1.3 µM)	-- (not active at 128 mcg/ml)	8 µg/mL (≈ 5.22 µM)	2 µg/mL (≈ 1.3 µM)	-- (not active at 128 mcg/ml)	2 µg/mL (≈ 1.3 µM)		-- (not active at 128 mcg/ml)		
CNC(CC(C)C)C(=O)NC1C(=O)NC(CC(N)=O)C(=O)NC2C(=O)NC3C(=O)NC(C(=O)NC(C(=O)O)c4cc(O)cc(O)c4-c4cc3ccc4O)C(O)c3ccc(c(Cl)c3)Oc3cc2cc(c3OC2OC(CO)C(O)C(O)C2OC2CC(C)(NC(=O)CCCCCBr)C(O)C(C)O2)Oc2ccc(cc2Cl)C1O (stereo not drawn) [Compound 35, N^van --(6-bromo-n-hexyl)vancomycin]	4 µg/mL (≈ 2.46 µM)	-- (not active at 128 mcg/ml)	8 µg/mL (≈ 4.92 µM)	-- (not active at 128 mcg/ml)	2 µg/mL (≈ 1.23 µM)	-- (not active at 128 mcg/ml)	-- (not active at 128 mcg/ml)	2 µg/mL (≈ 1.23 µM)	-- (not active at 128 mcg/ml)	2 µg/mL (≈ 1.23 µM)	1 µg/mL (≈ 0.615 µM)	2 µg/mL (≈ 1.23 µM)	-- (not active at 128 mcg/ml)	8 µg/mL (≈ 4.92 µM)	2 µg/mL (≈ 1.23 µM)	-- (not active at 128 mcg/ml)	4 µg/mL (≈ 2.46 µM)		-- (not active at 128 mcg/ml)		
CNC(CC(C)C)C(=O)NC1C(=O)NC(CC(N)=O)C(=O)NC2C(=O)NC3C(=O)NC(C(=O)NC(C(=O)O)c4cc(O)cc(O)c4-c4cc3ccc4O)C(O)c3ccc(c(Cl)c3)Oc3cc2cc(c3OC2OC(CO)C(O)C(O)C2OC2CC(C)(NC(=O)CCC(C)=O)C(O)C(C)O2)Oc2ccc(cc2Cl)C1O (stereo not drawn) [Compound 36, N^van --(3-acetyl-1-oxo-n-propyl)vancomycin]	4 µg/mL (≈ 2.59 µM)	-- (not active at 128 mcg/ml)	8 µg/mL (≈ 5.17 µM)	-- (not active at 128 mcg/ml)	1 µg/mL (≈ 0.646 µM)	-- (not active at 128 mcg/ml)	-- (not active at 128 mcg/ml)	4 µg/mL (≈ 2.59 µM)	-- (not active at 128 mcg/ml)	2 µg/mL (≈ 1.29 µM)	1 µg/mL (≈ 0.646 µM)	4 µg/mL (≈ 2.59 µM)	-- (not active at 128 mcg/ml)	16 µg/mL (≈ 10.3 µM)	2 µg/mL (≈ 1.29 µM)	-- (not active at 128 mcg/ml)	2 µg/mL (≈ 1.29 µM)		-- (not active at 128 mcg/ml)		
CN[C@H](CC(C)C)C(=O)N[C@H]1C(=O)N[C@@H](CC(N)=O)C(=O)N[C@H]2C(=O)N[C@H]3C(=O)N[C@H](C(=O)N[C@H](C(=O)O)c4cc(O)cc(O)c4-c4cc3ccc4O)[C@H](O)c3ccc(c(Cl)c3)Oc3cc2cc(c3O[C@@H]2O[C@H](CO)[C@@H](O)[C@H](O)[C@H]2O[C@H]2C[C@](C)(N)[C@H](O)[C@H](C)O2)Oc2ccc(cc2Cl)[C@H]1O [vancomycin, reference compound]																		0.99-1.1 mg/kg/2		1.8-3.7 mg/kg/2	ED50 [21]: 0.90-0.93 mg/kg/2
